From ChEMBL document CHEMBL3217477, “Synthesis and biological evaluation of substituted - and -2,3-dihydrofuran naphthoquinones as potent anticandidal agents” (Medchemcomm, 2010)
Values after ≈ are worked out from the molar mass of the structure shown.

How the values were obtained:
Candida parapsilosis [1] = experiment: Antifungal activity against Candida parapsilosis assessed as growth inhibition at 250 ug/mL after 24 hrs by hole plate diffusion method; type: functional; details: Lodderomyces parapsilosis, read-out: IZ
Candida dubliniensis [2] = experiment: Antifungal activity against Candida dubliniensis assessed as growth inhibition at 250 ug/mL after 24 hrs by hole plate diffusion method; type: functional; details: read-out: IZ
[3] = Cytotoxicity against mouse NIH/3T3 cells assessed as dead cells at 12.5 ug/mL after 72 hrs by Alamar Blue assay relative to control; type: cell-based; details: nih3t3, 72 h
Candida albicans [4] = experiment: Antifungal activity against Candida albicans assessed as growth inhibition at 250 ug/mL after 24 hrs by hole plate diffusion method; type: functional; details: read-out: IZ
Kluyveromyces marxianus [5] = experiment: Antifungal activity against Candida kefyr assessed as growth inhibition after 24 hrs by microbroth dilution method; type: functional
Candida albicans [6] = experiment: Antifungal activity against Candida albicans ATCC 90028 assessed as growth inhibition after 24 hrs by microbroth dilution method; type: functional; details: ATCC 90028, 24 h
Candida tropicalis [7] = experiment: Antifungal activity against Candida tropicalis assessed as growth inhibition after 24 hrs by microbroth dilution method; type: functional
[8] = Hemolytic activity in Swiss mouse erythrocytes at 50 ug/mL after 1 hr by spectrophotometric analysis relative to control; type: ADME, cell-based, Erythrocyte; details: read-out: Activity
Candida albicans [9] = experiment: Antifungal activity against Candida albicans assessed as growth inhibition after 24 hrs by microbroth dilution method; type: functional
Pichia kudriavzevii [10] = experiment: Antifungal activity against Candida krusei assessed as growth inhibition after 24 hrs by microbroth dilution method; type: functional
Kluyveromyces marxianus [11] = experiment: Antifungal activity against Candida kefyr assessed as growth inhibition at 250 ug/mL after 24 hrs by hole plate diffusion method; type: functional; details: read-out: IZ
Candida parapsilosis [12] = experiment: Antifungal activity against Candida parapsilosis assessed as growth inhibition after 24 hrs by microbroth dilution method; type: functional; details: Lodderomyces parapsilosis
Candida tropicalis [13] = experiment: Antifungal activity against Candida tropicalis assessed as growth inhibition at 250 ug/mL after 24 hrs by hole plate diffusion method; type: functional; details: read-out: IZ
Pichia kudriavzevii [14] = experiment: Antifungal activity against Candida krusei assessed as growth inhibition at 250 ug/mL after 24 hrs by hole plate diffusion method; type: functional; details: read-out: IZ
Candida dubliniensis [15] = experiment: Antifungal activity against Candida dubliniensis assessed as growth inhibition after 24 hrs by microbroth dilution method; type: functional

Which results are given for O=C1C2=C(OC(c3ccc(Br)cc3)C2)C(=O)c2ccccc21 (stereo not given)?
zone of inhibition at 250 µg/mL (Candida parapsilosis [1]): 9.18 mm; zone of inhibition at 250 µg/mL (Candida dubliniensis [2]): 0.49 mm; mortality [3]: 0%; zone of inhibition at 250 µg/mL (Candida albicans [4]): 1.39 mm; MIC (Kluyveromyces marxianus [5]): 70.4 µM (≈ 25 µg/mL); MIC (Candida albicans [6]): 70.4 µM (≈ 25 µg/mL); MIC (Candida tropicalis [7]): 35.2 µM (≈ 12.5 µg/mL); hemolysis at 1 h, 50 ug/mL [8]: 2.53%; MIC (Candida albicans [9]): 35.2 µM (≈ 12.5 µg/mL); MIC (Pichia kudriavzevii [10]): 70.4 µM (≈ 25 µg/mL); zone of inhibition at 250 µg/mL (Kluyveromyces marxianus [11]): 0 mm; MIC (Candida parapsilosis [12]): 35.2 µM (≈ 12.5 µg/mL); zone of inhibition at 250 µg/mL (Candida tropicalis [13]): 0 mm; zone of inhibition at 250 µg/mL (Pichia kudriavzevii [14]): 7.5 mm; MIC (Candida dubliniensis [15]): 70.4 µM (≈ 25 µg/mL)

Which zone of inhibition at 250 µg/mL (Candida parapsilosis [1]) does the source give for O=C1C2=C(OC3(C=CC=C3)C2)C(=O)c2ccccc21 here?
Its zone of inhibition at 250 µg/mL is 0 mm.

What about the zone of inhibition at 250 µg/mL (Candida dubliniensis [2]) of the same molecule?
Its zone of inhibition at 250 µg/mL is 16.6 mm.

And the mortality [3]?
Its mortality is 9%.

What about the zone of inhibition at 250 µg/mL (Candida albicans [4]) of the same molecule?
Its zone of inhibition at 250 µg/mL is 16.6 mm.

And the MIC (Kluyveromyces marxianus [5])?
The MIC was 52.5 µM (≈ 13.1 µg/mL).

And the MIC (Candida albicans [6])?
The MIC was 13.1 µM (≈ 3.28 µg/mL).

And the MIC (Candida tropicalis [7])?
Its MIC is 3.27 µM (≈ 0.818 µg/mL).

What about the hemolysis at 1 h, 50 ug/mL [8] of the same molecule?
The hemolysis at 1 h, 50 ug/mL was 5.92%.

And the MIC (Candida albicans [9])?
Its MIC is 2.09 µM (≈ 0.523 µg/mL).

What about the MIC (Pichia kudriavzevii [10]) of the same molecule?
Its MIC is 12.8 µM (≈ 3.22 µg/mL).

What about the zone of inhibition at 250 µg/mL (Kluyveromyces marxianus [11]) of the same molecule?
The zone of inhibition at 250 µg/mL was 9.3 mm.

And the MIC (Candida parapsilosis [12])?
Its MIC is 13.1 µM (≈ 3.28 µg/mL).

What about the zone of inhibition at 250 µg/mL (Candida tropicalis [13]) of the same molecule?
The zone of inhibition at 250 µg/mL was 7.8 mm.

What about the zone of inhibition at 250 µg/mL (Pichia kudriavzevii [14]) of the same molecule?
The zone of inhibition at 250 µg/mL was 10.8 mm.

What about the MIC (Candida dubliniensis [15]) of the same molecule?
Its MIC is 3.27 µM (≈ 0.818 µg/mL).

With O=C1C2=C(OC(c3ccc(F)cc3)C2)C(=O)c2ccccc21 (stereo not given) as the molecule, how does the zone of inhibition at 250 µg/mL (Candida parapsilosis [1]) read?
The zone of inhibition at 250 µg/mL was 3.86 mm.

What about the zone of inhibition at 250 µg/mL (Candida dubliniensis [2]) of the same molecule?
The zone of inhibition at 250 µg/mL was 2.66 mm.

And the mortality [3]?
Its mortality is 0%.

And the zone of inhibition at 250 µg/mL (Candida albicans [4])?
The zone of inhibition at 250 µg/mL was 10.3 mm.

What about the MIC (Kluyveromyces marxianus [5]) of the same molecule?
The MIC was 85 µM (≈ 25 µg/mL).

And the MIC (Candida albicans [6])?
The MIC was 85 µM (≈ 25 µg/mL).

What about the MIC (Candida tropicalis [7]) of the same molecule?
Its MIC is 42.5 µM (≈ 12.5 µg/mL).

And the hemolysis at 1 h, 50 ug/mL [8]?
The hemolysis at 1 h, 50 ug/mL was -1.95%.

And the MIC (Candida albicans [9])?
The MIC was 21.2 µM (≈ 6.25 µg/mL).

What about the MIC (Pichia kudriavzevii [10]) of the same molecule?
Its MIC is 85 µM (≈ 25 µg/mL).

What about the zone of inhibition at 250 µg/mL (Kluyveromyces marxianus [11]) of the same molecule?
The zone of inhibition at 250 µg/mL was 7.28 mm.

What about the MIC (Candida parapsilosis [12]) of the same molecule?
Its MIC is 42.5 µM (≈ 12.5 µg/mL).

What about the zone of inhibition at 250 µg/mL (Candida tropicalis [13]) of the same molecule?
The zone of inhibition at 250 µg/mL was 3.31 mm.

What about the zone of inhibition at 250 µg/mL (Pichia kudriavzevii [14]) of the same molecule?
Its zone of inhibition at 250 µg/mL is 9.12 mm.

What about the MIC (Candida dubliniensis [15]) of the same molecule?
The MIC was 42.5 µM (≈ 12.5 µg/mL).
